Test results from patent publication US9771359B1, “Substituted oxazole- and thiazole-based carboxamide and urea derivatives as vanilloid receptor ligands II” (MEDIFRON DBT INC., priority 2014, dated 2017).
Counter-ions that a name gives are not always drawn.

Biological target: vanilloid receptor 1 (VR1/TRPV1) (Homo sapiens (Human), UniProt Q8NER1)
Experiment: FLIPR assay, Ca2+ influx in CHO K1 cells transfected with the human VR1 gene
Assay type: cell-based
Conditions: CHO-K1; @5 μM test compound; capsaicin 100 nM; read-out: inhibition (as a percentage), Cap
Method: Furthermore, preference may be given to compounds according to the first aspect of the invention that cause a 50% displacement of capsaicin, which is present at a concentration of 100 nM, in a FLIPR assay with CHO K1 cells which were transfected with the human VR1 gene at a concentration of less than 2 000 nM, preferably less than 1 000 nM, particularly preferably less than 300 nM, most particularly preferably less than 100 nM, even more preferably less than 75 nM, additionally preferably less than 50 nM, most preferably less than 10 nM. In the process, the Ca^2+ influx is quantified in the FLIPR assay with the aid of a Ca^2+-sensitive dye (type Fluo-4, Molecular Probes Europe BV, Leiden, the Netherlands) in a fluorescent imaging plate reader (FLIPR, Molecular Devices, Sunnyvale, USA), as described hereinafter.
The FLIPR protocol consists of 2 substance additions during a kinetic measurement. First the compounds to be tested (5 μM) are pipetted onto the cells and the Ca^2+ influx is determined in comparison to the control (capsaicin 10 μM), providing the result as % activation and representing the compound-alone effect (calculation at peak signal related to baseline). […] After 5 min incubation, the Ca^2+ influx is related to an injection of 100 nM of capsaicin and thereby the antagonistic effect of the test compounds detected.
Desensitising agonists and antagonists lead to suppression of the Ca^2+ influx. The % inhibition is calculated compared to the maximum achievable inhibition with 10 μM of capsaicin. Triple analyses (n=3) are carried out and repeated in at least 3 independent experiments.
Starting from the percentage displacement caused by different concentrations of the compounds to be tested of general formula I, IC50 inhibitory concentrations which cause a 50-% displacement of capsaicin were calculated. Ki values for the test substances were obtained by conversion by means of the Cheng-Prusoff equation (Cheng, Prusoff; Biochem. Pharmacol. 22, 3099-3108, 1973).
Chinese hamster ovary cells (CHO K1 cells, European Collection of Cell Cultures (ECACC) United Kingdom) are stably transfected with the VR1 gene. For functional testing, these cells are plated out on poly-D-lysine-coated black 96-well plates having a clear base (BD Biosciences, Heidelberg, Germany) at a density of 25,000 cells/well. The cells are incubated overnight at 37° C. and 5% CO2 in a culture medium (Ham's F12 nutrient mixture, 10% by volume of FCS (foetal calf serum), 18 μg/ml of L-proline). The next day the cells are incubated with Fluo-4 (Fluo-4 2 μM, 0.01% by volume of Pluronic F127, Molecular Probes in HBSS (Hank's buffered saline solution), Gibco Invitrogen GmbH, Karlsruhe, Germany) for 30 min at 37° C. Subsequently, the plates are washed three times with HBSS buffer and after further incubation for 15 min at RT used for Ca^2+ measurement in a FLIPR assay. The Ca^2+-dependent fluorescence is measured before and after the addition of the substances to be tested (λex wavelength=488 nm, λem=540 nm). Quantification is carried out by measuring the highest fluorescence intensity (FC, fluorescence counts) over time.

Sequence of vanilloid receptor 1 (VR1/TRPV1) (Q8NER1 whole entry): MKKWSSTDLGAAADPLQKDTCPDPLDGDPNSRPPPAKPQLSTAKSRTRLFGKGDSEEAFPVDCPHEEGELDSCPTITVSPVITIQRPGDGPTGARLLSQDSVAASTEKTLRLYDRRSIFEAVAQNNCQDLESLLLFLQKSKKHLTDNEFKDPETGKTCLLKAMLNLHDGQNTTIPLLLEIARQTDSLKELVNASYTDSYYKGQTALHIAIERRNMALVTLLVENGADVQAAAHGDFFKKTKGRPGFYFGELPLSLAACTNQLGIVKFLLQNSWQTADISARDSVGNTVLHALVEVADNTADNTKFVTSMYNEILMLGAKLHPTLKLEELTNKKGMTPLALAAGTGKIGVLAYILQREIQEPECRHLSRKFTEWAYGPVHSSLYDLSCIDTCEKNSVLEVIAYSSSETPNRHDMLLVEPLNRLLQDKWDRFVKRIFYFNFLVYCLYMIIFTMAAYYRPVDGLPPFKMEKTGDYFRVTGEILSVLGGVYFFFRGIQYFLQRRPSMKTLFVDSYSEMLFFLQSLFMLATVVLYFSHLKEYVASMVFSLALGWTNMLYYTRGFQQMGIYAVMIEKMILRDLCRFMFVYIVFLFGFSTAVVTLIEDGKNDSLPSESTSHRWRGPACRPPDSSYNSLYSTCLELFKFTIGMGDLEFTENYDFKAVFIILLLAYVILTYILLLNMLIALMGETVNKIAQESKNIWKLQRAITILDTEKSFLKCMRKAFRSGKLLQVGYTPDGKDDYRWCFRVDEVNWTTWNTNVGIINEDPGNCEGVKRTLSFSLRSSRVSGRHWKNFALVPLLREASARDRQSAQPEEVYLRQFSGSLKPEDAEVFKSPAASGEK

inhibition at 5 µM [%] | Compound
55 | CC(C)(C)c1nc(-c2cccc(Cl)c2)c(CNC(=O)Nc2ccc(COCCO)nc2)o1 [EX-46, 1-((2-(tert-butyl)-4-(3-chlorophenyl)oxazol-5-yl)methyl)-3-(6-((2-hydroxyethoxy)methyl)pyridin-3-yl)urea dihydrochloride]
31 | O=C(NCc1oc(C(F)(F)F)nc1-c1cccc(Cl)c1)Nc1ccc(COCCO)nc1 [EX-48, 1-((4-(3-chlorophenyl)-2-(trifluoromethyl)oxazol-5-yl)methyl)-3-(6-((2-hydroxyethoxy)methyl)pyridin-3-yl)urea dihydrochloride]

Same assay, conditions: compound 5 μM, % activation compared with control capsaicin 10 μM

Compound | compound-alone effect on Ca2+ influx (agonist / partial agonist)
CC(C)(C)c1nc(-c2cccc(Cl)c2)c(CNC(=O)Nc2ccc3c(c2)OCO3)s1 [EX-50, 1-(benzo[d][1,3]dioxol-5-yl)-3-((2-(tert-butyl)-4-(3-chlorophenyl)thiazol-5-yl)methyl)urea] | pAG (A Ca^2+ influx of 10%-60% reveals a partial agonist (pAG))
CC(C)(C)c1nc(-c2cccc(Cl)c2)c(CNC(=O)Nc2cccc3c2CCC3)s1 [EX-51, 1-((2-(tert-butyl)-4-(3-chlorophenyl)thiazol-5-yl)methyl)-3-(2,3-dihydro-1H-inden-4-yl)urea] | pAG (A Ca^2+ influx of 10%-60% reveals a partial agonist (pAG))
CC(C)(C)c1nc(-c2cccc(Cl)c2)c(CNC(=O)Nc2ccc3cnccc3c2)s1 [EX-52, 1-((2-(tert-butyl)-4-(3-chlorophenyl)thiazol-5-yl)methyl)-3-(isoquinolin-6-yl)urea] | AG (a Ca^2+ influx of >60% relates to a pure agonist (AG))
CC(C)(C)c1nc(-c2cccc(Cl)c2)c(CNC(=O)Nc2cccc3ncccc23)s1 [EX-53, 1-((2-(tert-butyl)-4-(3-chlorophenyl)thiazol-5-yl)methyl)-3-(quinolin-5-yl)urea] | AG (a Ca^2+ influx of >60% relates to a pure agonist (AG))
CC(C)(C)c1nc(-c2cccc(Cl)c2)c(CNC(=O)Nc2ccc(CO)c(F)c2)s1 [EX-59, 1-((2-(tert-butyl)-4-(3-chlorophenyl)thiazol-5-yl)methyl)-3-(3-fluoro-4-(hydroxymethyl)phenyl)urea] | pAG (A Ca^2+ influx of 10%-60% reveals a partial agonist (pAG))
Cc1cccc(-c2nc(C(C)(C)C)sc2CNC(=O)Nc2ccc(CO)c(F)c2)c1 [EX-60, 1-((2-(tert-butyl)-4-(m-tolyl)thiazol-5-yl)methyl)-3-(3-fluoro-4-(hydroxymethyl)phenyl)urea] | pAG (A Ca^2+ influx of 10%-60% reveals a partial agonist (pAG))

Same assay, conditions: displacement of capsaicin 100 nM; Ki from IC50 by Cheng-Prusoff equation; read-out: (f) Ki (human) [nM] Cap

Ki [nM] | Compound
17.6 | CC(C)(C)c1nc(-c2cccc(F)c2)c(CNC(=O)Nc2ccc(CNS(C)(=O)=O)cc2)s1 [EX-39, N-(4-(3-((2-(tert-butyl)-4-(3-fluorophenyl)thiazol-5-yl)methyl)ureido)benzyl)methanesulfonamide]
43.6 | CC(C)(C)c1nc(-c2cccc(Cl)c2)c(CNC(=O)Nc2ccc(OCCO)nc2)o1 [EX-40, 1-((2-(tert-butyl)-4-(3-chlorophenyl)oxazol-5-yl)methyl)-3-(6-(2-hydroxyethoxy)pyridin-3-yl)urea]
27.5 | CC(C)(C)c1nc(-c2cccc(Cl)c2)c(CNC(=O)Nc2ccc(OCCO)nc2)s1 [EX-41, 1-((2-(tert-butyl)-4-(3-chlorophenyl)thiazol-5-yl)methyl)-3-(6-(2-hydroxyethoxy)pyridin-3-yl)urea]
103 | O=C(NCc1oc(C(F)(F)F)nc1-c1cccc(Cl)c1)Nc1ccc(OCCO)nc1 [EX-42, 1-((4-(3-chlorophenyl)-2-(trifluoromethyl)oxazol-5-yl)methyl)-3-(6-(2-hydroxyethoxy)pyridin-3-yl)urea]
29.8 | O=C(NCc1sc(C(F)(F)F)nc1-c1cccc(Cl)c1)Nc1ccc(OCCO)nc1 [EX-43, 1-((4-(3-chlorophenyl)-2-(trifluoromethyl)thiazol-5-yl)methyl)-3-(6-(2-hydroxyethoxy)pyridin-3-yl)urea]
29.9 | CC(C)(C)c1nc(CNC(=O)Nc2ccc(CNS(N)(=O)=O)cc2)c(-c2cccc(Cl)c2)o1 [EX-44, N-((5-(3-chlorophenyl)-2-(tertbutyl)oxazol-4-yl)methyl)-N′-(4-((sulfamoylamino)methyl)phenyl)urea]
33.3 | CC(C)(C)c1nc(-c2cccc(Cl)c2)c(CNC(=O)Nc2ccc(COCCO)nc2)s1 [EX-47, 1-((2-(tert-butyl)-4-(3-chlorophenyl)thiazol-5-yl)methyl)-3-(6-((2-hydroxyethoxy)-methyl)pyridin-3-yl)urea dihydrochloride]
35 | O=C(NCc1sc(C(F)(F)F)nc1-c1cccc(Cl)c1)Nc1ccc(COCCO)nc1 [EX-49, 1-((4-(3-chlorophenyl)-2-(trifluoromethyl)thiazol-5-yl)methyl)-3-(6-((2-hydroxyethoxy)methyl)pyridin-3-yl)urea dihydrochloride]
5.6 | CC(C)(C)c1nc(-c2cccc(Cl)c2)c(CNC(=O)Nc2ccc3c(c2)OCO3)s1 [EX-50, 1-(benzo[d][1,3]dioxol-5-yl)-3-((2-(tert-butyl)-4-(3-chlorophenyl)thiazol-5-yl)methyl)urea]
2.9 | CC(C)(C)c1nc(-c2cccc(Cl)c2)c(CNC(=O)Nc2cccc3c2CCC3)s1 [EX-51, 1-((2-(tert-butyl)-4-(3-chlorophenyl)thiazol-5-yl)methyl)-3-(2,3-dihydro-1H-inden-4-yl)urea]
5.9 | CC(C)(C)c1nc(-c2cccc(Cl)c2)c(CNC(=O)Nc2ccc3c(c2)OCCO3)s1 [EX-54, 1-((2-(tert-butyl)-4-(3-chlorophenyl)thiazol-5-yl)methyl)-3-(2,3-dihydrobenzo[b][1,4]dioxin-6-yl)urea]
12.3 | CC(C)(C)c1nc(-c2cccc(Cl)c2)c(CNC(=O)Nc2ccc3c(c2)CCC3)s1 [EX-55, 1-((2-(tert-butyl)-4-(3-chlorophenyl)thiazol-5-yl)methyl)-3-(2,3-dihydro-1H-inden-5-yl)urea]
0.1 | CC(C)(C)c1nc(-c2cccc(Cl)c2)c(CNC(=O)Nc2cccc3cnccc23)s1 [EX-56, 1-((2-(tert-butyl)-4-(3-chlorophenyl)thiazol-5-yl)methyl)-3-(isoquinolin-5-yl)urea]
6.6 | CC(C)(C)c1nc(-c2cccc(Cl)c2)c(CNC(=O)Nc2ccc(CNS(C)(=O)=O)c(F)c2)s1 [EX-57, N-(4-(3-((2-(tert-butyl)-4-(3-chlorophenyl)thiazol-5-yl)methyl)ureido)-2-fluorobenzyl)methanesulfonamide]
2.3 | Cc1cccc(-c2nc(C(C)(C)C)sc2CNC(=O)Nc2ccc(CNS(C)(=O)=O)c(F)c2)c1 [EX-58, N-(4-(3-((2-(tert-butyl)-4-(m-tolyl)thiazol-5-yl)methyl)ureido)-2-fluorobenzyl)methanesulfonamide]
1.1 | CC(C)(C)c1nc(-c2cccc(Cl)c2)c(CNC(=O)Nc2ccc(CO)c(F)c2)s1 [EX-59, 1-((2-(tert-butyl)-4-(3-chlorophenyl)thiazol-5-yl)methyl)-3-(3-fluoro-4-(hydroxymethyl)phenyl)urea]
3.2 | Cc1cccc(-c2nc(C(C)(C)C)sc2CNC(=O)Nc2ccc(CO)c(F)c2)c1 [EX-60, 1-((2-(tert-butyl)-4-(m-tolyl)thiazol-5-yl)methyl)-3-(3-fluoro-4-(hydroxymethyl)phenyl)urea]
